Data taken from paper PMC10878397, “Development of Potent Dual BET/HDAC Inhibitors via Pharmacophore Merging and Structure-Guided Optimization” (ACS Chemical Biology, 2024).

Columns and labels:
[1] = tested on: HEXIM1 mRNA in PaTu8988T cells; experiment: Quantitative RT-PCR of BET-inhibition biomarker; type: cell-based; settings: 6 h, 1 μΜ compound
Experimental: Total RNA was extracted from cell culture using the Maxwell RSC simply RNA Cells Kit (Promega) according to the manufacturer’s protocol. cDNA was synthesized using PrimeScript Reverse Transcriptase (TakaRa) and amplified using homemade PCR master mix. The amplicon was detected by EvaGreen Dye using a LightCycler 480 instrument (Roche). PCR conditions were 5 min at 95 °C, followed by 45 cycles of 95 °C for 10 s, 59 °C for 10 s, and 72 °C for 20 s. The relative gene expression levels were normalized to GUSB and calculated using the 2^–ΔΔC^t method.

HDAC10 = biological target: T1, HDAC10 (Homo sapiens, UniProt Q969S8); experiment: HDAC selectivity profile (Reaction Biology); type: biochemical; settings: no inhibitor control as 100%, read-out: % Enzyme activity HDAC10
T1 construct: purchased Reaction Biology
Experimental: (§1) The reactions were performed by Reaction Biology using a protease-coupled assay with fluorogenic substrates where, after deacetylation by the HDAC and subsequent proteolytic digest, the free fluorophore 7-amino-4-methyl coumarin (AMC) can be quantified.[60] The following substrates were used for activity assays: HDACs 1, 2, 3, and 6: fluorogenic tetrapeptide from p53 residues 379–382 (RHKK(Ac) AMC); HDACs 4, 5, 7, 9, and 11: fluorogenic HDAC class2a substrate (trifluoroacetyl lysine); HDAC8: twice acetylated fluorogenic tetrapeptide from p53 residues 379–382 (RHK(Ac) K(Ac) AMC); HDAC10: Ac-spermidine-AMC. Data are given as % residual activity compared with the uninhibited control reaction.

HDAC5 = biological target: T2, HDAC5 (Homo sapiens, UniProt Q9UQL6); experiment: HDAC selectivity profile (Reaction Biology); type: biochemical; settings: no inhibitor control as 100%, read-out: % Enzyme activity HDAC5
T2 construct: purchased Reaction Biology
Experimental: as §1

HDAC9 = biological target: T3, HDAC9 (Homo sapiens, UniProt Q9UKV0); experiment: HDAC selectivity profile (Reaction Biology); type: biochemical; settings: no inhibitor control as 100%, read-out: % Enzyme activity HDAC9
T3 construct: purchased Reaction Biology
Experimental: as §1

HDAC8 = biological target: T4, HDAC8 (Homo sapiens, UniProt Q9BY41); experiment: HDAC selectivity profile (Reaction Biology); type: biochemical; settings: no inhibitor control as 100%, read-out: % Enzyme activity HDAC8
T4 construct: purchased Reaction Biology
Experimental: as §1

HDAC4 = biological target: T5, HDAC4 (Homo sapiens, UniProt P56524); experiment: HDAC selectivity profile (Reaction Biology); type: biochemical; settings: no inhibitor control as 100%, read-out: % Enzyme activity HDAC4
T5 construct: purchased Reaction Biology
Experimental: as §1

HDAC7 = biological target: T6, HDAC7 (Homo sapiens, UniProt Q8WUI4); experiment: HDAC selectivity profile (Reaction Biology); type: biochemical; settings: no inhibitor control as 100%, read-out: % Enzyme activity HDAC7
T6 construct: purchased Reaction Biology
Experimental: as §1

HDAC6 = biological target: T7, HDAC6 (Homo sapiens, UniProt Q9UBN7); experiment: HDAC selectivity profile (Reaction Biology); type: biochemical; settings: no inhibitor control as 100%, read-out: % Enzyme activity HDAC6
T7 construct: purchased Reaction Biology
Experimental: as §1

HDAC11 = biological target: T8, HDAC11 (Homo sapiens, UniProt Q96DB2); experiment: HDAC selectivity profile (Reaction Biology); type: biochemical; settings: no inhibitor control as 100%
T8 construct: purchased Reaction Biology
T8 sequence (Q96DB2 1-347): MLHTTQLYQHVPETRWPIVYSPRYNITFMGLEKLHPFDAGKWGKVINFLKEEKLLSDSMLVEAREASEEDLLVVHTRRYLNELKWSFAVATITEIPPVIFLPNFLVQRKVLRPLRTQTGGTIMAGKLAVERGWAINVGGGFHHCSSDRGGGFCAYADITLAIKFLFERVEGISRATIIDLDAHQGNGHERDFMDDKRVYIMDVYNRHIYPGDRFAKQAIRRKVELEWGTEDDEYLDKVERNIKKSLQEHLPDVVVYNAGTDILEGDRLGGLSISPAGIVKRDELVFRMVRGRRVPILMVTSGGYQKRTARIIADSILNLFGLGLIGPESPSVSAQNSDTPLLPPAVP
Experimental: as §1

[2] = tested on: zinc-dependent HDACs (HDAC1–11); experiment: HDAC selectivity profile, whole panel; type: biochemical, human; settings: 1 and 10 μM
Experimental: as §1

HDAC2 = HDAC2 (Homo sapiens, UniProt Q92769); experiment: HDAC selectivity profile (Reaction Biology); type: biochemical; design: purchased Reaction Biology; settings: no inhibitor control as 100%, read-out: % Enzyme activity HDAC2
Experimental: as §1

HDAC3 = HDAC3 (Homo sapiens, UniProt O15379); experiment: HDAC selectivity profile (Reaction Biology); type: biochemical; design: purchased Reaction Biology; settings: no inhibitor control as 100%
Experimental: as §1

HDAC1 = HDAC1 (Homo sapiens, UniProt Q13547); experiment: HDAC selectivity profile (Reaction Biology); type: biochemical; design: purchased Reaction Biology; settings: no inhibitor control as 100%, read-out: % Enzyme activity HDAC1
Experimental: as §1

HDAC3, sequence (O15379 whole entry): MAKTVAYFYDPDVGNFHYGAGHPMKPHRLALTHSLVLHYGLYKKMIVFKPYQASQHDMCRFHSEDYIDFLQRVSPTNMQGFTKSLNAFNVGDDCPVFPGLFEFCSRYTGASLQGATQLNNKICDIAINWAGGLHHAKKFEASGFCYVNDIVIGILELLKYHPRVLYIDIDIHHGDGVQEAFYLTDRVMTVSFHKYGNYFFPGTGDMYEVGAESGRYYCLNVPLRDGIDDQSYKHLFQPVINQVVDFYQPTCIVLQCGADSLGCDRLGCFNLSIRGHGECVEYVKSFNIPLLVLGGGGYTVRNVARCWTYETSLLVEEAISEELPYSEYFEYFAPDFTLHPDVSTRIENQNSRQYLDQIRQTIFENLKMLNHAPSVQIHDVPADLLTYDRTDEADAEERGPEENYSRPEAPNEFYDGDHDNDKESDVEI
HDAC3, sequence (Q9Y618 395-489 partner limits assumed): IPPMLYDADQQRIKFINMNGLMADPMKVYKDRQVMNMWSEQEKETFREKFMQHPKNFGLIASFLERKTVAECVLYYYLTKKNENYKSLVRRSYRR
T7 sequence (Q9UBN7 whole entry): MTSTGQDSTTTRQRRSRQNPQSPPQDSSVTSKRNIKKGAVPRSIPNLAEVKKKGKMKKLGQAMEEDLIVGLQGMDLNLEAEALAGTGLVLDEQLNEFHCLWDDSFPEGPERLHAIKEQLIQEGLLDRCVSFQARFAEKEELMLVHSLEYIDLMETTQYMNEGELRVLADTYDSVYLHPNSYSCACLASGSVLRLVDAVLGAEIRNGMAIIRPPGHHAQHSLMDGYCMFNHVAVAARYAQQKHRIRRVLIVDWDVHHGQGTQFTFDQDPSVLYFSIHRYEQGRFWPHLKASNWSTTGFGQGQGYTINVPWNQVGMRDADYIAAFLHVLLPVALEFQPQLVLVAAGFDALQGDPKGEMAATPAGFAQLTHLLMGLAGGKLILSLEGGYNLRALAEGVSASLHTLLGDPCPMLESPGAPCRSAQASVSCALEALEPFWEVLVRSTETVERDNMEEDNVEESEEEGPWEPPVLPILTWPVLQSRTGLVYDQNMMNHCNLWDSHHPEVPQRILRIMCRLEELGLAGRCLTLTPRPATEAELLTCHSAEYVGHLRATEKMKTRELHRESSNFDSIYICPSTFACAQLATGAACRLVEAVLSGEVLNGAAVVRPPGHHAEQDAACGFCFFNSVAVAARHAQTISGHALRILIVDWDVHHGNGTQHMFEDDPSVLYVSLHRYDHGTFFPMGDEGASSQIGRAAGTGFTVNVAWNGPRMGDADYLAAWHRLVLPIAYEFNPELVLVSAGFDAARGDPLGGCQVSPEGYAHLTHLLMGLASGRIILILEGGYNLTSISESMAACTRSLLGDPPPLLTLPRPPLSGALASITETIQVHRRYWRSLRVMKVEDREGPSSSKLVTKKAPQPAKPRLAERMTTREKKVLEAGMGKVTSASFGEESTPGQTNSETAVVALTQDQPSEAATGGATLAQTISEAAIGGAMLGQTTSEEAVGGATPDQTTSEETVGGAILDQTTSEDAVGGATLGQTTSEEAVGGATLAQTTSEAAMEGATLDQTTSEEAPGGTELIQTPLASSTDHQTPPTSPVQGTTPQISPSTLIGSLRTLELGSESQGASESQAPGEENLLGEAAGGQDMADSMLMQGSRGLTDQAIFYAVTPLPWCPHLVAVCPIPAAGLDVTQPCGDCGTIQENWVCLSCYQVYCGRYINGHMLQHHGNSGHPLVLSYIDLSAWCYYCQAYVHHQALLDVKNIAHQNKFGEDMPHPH
T3 sequence (Q9UKV0 whole entry): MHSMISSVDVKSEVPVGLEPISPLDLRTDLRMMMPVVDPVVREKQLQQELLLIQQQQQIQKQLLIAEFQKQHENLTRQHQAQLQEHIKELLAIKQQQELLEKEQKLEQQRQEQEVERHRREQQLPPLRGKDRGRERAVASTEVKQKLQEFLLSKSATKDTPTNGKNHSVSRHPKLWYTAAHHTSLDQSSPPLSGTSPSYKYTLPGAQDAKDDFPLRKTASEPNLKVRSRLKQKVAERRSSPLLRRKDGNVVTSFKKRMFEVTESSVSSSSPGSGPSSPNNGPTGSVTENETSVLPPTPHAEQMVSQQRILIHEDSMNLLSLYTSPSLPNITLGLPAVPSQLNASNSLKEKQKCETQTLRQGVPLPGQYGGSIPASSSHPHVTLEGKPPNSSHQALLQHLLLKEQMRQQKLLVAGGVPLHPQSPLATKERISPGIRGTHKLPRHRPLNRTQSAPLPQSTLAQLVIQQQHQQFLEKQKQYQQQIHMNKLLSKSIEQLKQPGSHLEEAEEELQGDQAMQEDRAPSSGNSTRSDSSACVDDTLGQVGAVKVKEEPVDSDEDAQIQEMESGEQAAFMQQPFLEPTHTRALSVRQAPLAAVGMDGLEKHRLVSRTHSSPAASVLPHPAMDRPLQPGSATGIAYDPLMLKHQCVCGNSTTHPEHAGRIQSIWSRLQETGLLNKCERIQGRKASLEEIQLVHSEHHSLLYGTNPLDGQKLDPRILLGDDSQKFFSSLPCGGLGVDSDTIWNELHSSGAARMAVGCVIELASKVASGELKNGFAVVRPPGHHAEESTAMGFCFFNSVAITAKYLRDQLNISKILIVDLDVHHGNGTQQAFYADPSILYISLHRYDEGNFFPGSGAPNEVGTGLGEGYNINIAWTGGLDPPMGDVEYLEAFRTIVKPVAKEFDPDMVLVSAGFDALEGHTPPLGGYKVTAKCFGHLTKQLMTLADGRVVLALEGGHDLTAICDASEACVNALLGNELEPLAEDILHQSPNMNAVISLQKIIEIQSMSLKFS
HDAC2, sequence (Q92769 whole entry): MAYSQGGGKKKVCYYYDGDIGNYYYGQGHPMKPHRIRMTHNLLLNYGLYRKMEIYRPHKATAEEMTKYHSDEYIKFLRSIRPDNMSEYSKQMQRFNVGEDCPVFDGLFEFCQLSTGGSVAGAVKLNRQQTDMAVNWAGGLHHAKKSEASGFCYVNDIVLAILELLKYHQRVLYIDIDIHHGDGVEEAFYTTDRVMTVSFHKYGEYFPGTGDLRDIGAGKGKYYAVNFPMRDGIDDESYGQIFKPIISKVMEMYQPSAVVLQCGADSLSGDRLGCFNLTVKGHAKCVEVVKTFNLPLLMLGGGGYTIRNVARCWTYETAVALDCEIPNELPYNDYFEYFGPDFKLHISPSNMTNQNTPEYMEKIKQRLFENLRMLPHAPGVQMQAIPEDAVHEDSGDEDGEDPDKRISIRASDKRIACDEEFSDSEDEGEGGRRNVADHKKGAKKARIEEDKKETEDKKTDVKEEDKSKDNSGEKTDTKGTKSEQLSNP
T4 sequence (Q9BY41 whole entry): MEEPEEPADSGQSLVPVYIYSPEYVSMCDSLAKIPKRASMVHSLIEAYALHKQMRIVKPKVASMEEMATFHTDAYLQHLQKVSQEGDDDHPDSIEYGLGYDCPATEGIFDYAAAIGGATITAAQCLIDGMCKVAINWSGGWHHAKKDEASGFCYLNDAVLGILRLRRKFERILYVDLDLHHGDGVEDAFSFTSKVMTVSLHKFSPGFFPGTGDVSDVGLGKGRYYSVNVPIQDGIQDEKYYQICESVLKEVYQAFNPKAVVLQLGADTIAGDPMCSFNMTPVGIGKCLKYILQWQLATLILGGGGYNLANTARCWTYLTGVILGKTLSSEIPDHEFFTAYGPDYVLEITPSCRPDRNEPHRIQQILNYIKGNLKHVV
T5 sequence (P56524 whole entry): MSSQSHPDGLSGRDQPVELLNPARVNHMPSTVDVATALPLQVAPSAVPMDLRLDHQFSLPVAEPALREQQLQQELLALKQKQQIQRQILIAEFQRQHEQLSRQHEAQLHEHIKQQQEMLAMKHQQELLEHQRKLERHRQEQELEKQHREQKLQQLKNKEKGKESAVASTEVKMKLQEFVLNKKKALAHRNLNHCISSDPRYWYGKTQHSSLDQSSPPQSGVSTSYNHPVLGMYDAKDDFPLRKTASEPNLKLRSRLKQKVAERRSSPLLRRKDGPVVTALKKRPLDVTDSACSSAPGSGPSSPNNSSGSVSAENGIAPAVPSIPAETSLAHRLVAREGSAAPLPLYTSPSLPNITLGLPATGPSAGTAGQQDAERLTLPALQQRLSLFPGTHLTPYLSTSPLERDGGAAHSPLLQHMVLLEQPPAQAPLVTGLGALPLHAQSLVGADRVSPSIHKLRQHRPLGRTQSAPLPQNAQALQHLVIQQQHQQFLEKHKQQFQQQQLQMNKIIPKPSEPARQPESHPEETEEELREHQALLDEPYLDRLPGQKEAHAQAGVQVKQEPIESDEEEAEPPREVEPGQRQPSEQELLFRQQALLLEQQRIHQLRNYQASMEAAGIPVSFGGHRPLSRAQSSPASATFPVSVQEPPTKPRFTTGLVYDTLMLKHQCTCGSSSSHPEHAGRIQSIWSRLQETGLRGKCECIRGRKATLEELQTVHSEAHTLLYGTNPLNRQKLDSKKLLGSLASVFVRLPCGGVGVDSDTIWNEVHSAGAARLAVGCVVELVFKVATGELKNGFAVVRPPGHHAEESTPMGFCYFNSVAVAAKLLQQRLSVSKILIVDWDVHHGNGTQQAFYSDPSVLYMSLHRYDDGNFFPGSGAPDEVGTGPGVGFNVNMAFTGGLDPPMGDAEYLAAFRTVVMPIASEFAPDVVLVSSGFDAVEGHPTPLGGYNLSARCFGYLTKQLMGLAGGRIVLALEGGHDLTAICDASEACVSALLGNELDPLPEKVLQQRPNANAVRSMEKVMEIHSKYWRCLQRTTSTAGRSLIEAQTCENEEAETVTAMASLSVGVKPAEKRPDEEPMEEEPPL

Cn1cc(-c2ccc(C(=O)Nc3cc(-c4ccccc4)ccc3N)cc2)c2cc[nH]c2c1=O [NB503]
HEXIM1 mRNA levels [1]: strongest effect

Cn1cc(-c2ccc(C(=O)Nc3cc(-c4ccccc4)ccc3N)nc2)c2cc[nH]c2c1=O [NB512]
remaining activity at 1 µM (HDAC10; 1 µM NB512): 98.1% | remaining activity at 10 µM (HDAC10; 10 µM NB512): 98.6% | remaining activity at 1 µM (HDAC5; 1 µM NB512): 89.3% | remaining activity at 10 µM (HDAC5; 10 µM NB512): 84.1% | remaining activity at 1 µM (HDAC9; 1 µM NB512): 96.2% | remaining activity at 10 µM (HDAC9; 10 µM NB512): 85% | remaining activity at 1 µM (HDAC8; 1 µM NB512): 96.4% | remaining activity at 10 µM (HDAC8; 10 µM NB512): 97.9% | remaining activity at 1 µM (HDAC4; 1 µM NB512): 91.5% | remaining activity at 10 µM (HDAC4; 10 µM NB512): 82.4% | remaining activity at 1 µM (HDAC7; 1 µM NB512): 101% | remaining activity at 10 µM (HDAC7; 10 µM NB512): 101% | remaining activity at 1 µM (HDAC6; 1 µM NB512): 100% | remaining activity at 10 µM (HDAC6; 10 µM NB512): 90.2% | remaining activity at 1 µM (HDAC11; 1 µM NB512, read-out: % Enzyme activity HDAC11): 97.7% | % Enzyme activity HDAC11 (HDAC11; 10 µM NB512): 60% | remaining activity at 10 µM (HDAC11; 10 µM NB512, read-out: % Enzyme activity HDAC11): 59.9% | selectivity among zinc-dependent HDACs [2]: high selectivity for HDAC1/2 | remaining activity at 1 µM (HDAC2; 1 µM NB512): 50.3% | remaining activity at 10 µM (HDAC2; 10 µM NB512): 13.5% | remaining activity at 1 µM (HDAC3; 1 µM NB512, read-out: % Enzyme activity HDAC3): 95.5% | % Enzyme activity HDAC3 (HDAC3; 10 µM NB512): 76% | remaining activity at 10 µM (HDAC3; 10 µM NB512, read-out: % Enzyme activity HDAC3): 76.4% | remaining activity at 1 µM (HDAC1; 1 µM NB512): 20.6% | remaining activity at 10 µM (HDAC1; 10 µM NB512): 10.3%
